Legend:
[1] = system: electrically-stimulated left atria; experiment: Electrically-stimulated beating left atrium, organ bath; assay type: cell-based, guinea-pig
Procedure: Organ bath experiments and tissue procurement. Guinea-pigs were killed by a blow on the head. Their hearts were quickly excised and trimmed of excess tissues. The atrium was carefully removed and placed at room temperature (20˜25° C.) in a Krebs solution of the following composition (mM): NaCl 113, KCl 4.8, CaCl2 2.2, KH2PO4 1.2, MgCl2 1.2, NaHCO3 25, dextrose 11.0; bubbled with a 95% O2+5% CO2 mixture, followed by separation of right and left atrium for subsequent experiments.
Quiescent left atria free of connective tissues were dissected and mounted in an organ bath under a resting tension of 0.5 g. Organs were bathed at 32.5° C. in aerated Krebs solution and electrically stimulated with 1 Hz at […] via two platinum electrodes placed at either side. The positive inotropic effect was measured by determining the cumulative concentration-response curves in the presence of KMUP-3 or KMUP-3 amine salt (0.1, 1.0, 10, 100 μM). To examine the possible involvement of NO and cAMP/cGMP in the action of KMUP-3 or KMUP-3 amine salt on electrically-stimulated beating atria, pre-incubated with a ROCK inhibitor Y27632 (1.0 μM), a β-adrenoceptor blocker propranolol (1.0 μM), eNOS inhibitors L-NAME (100 μM), 7-nitroindazole (100 μM) and 5-HT inhibitor ketanserin (1.0 μM) was performed for 15 min prior to the addition of KMUP-3 or KMUP-3 amine salt to measure the development of beating force and heart rate for 10 min.

CPI-17 = CPI-17 phosphorylation in electrically stimulated beating left atria; assay type: cell-based, guinea-pig
Procedure: (§1) Protein extraction and Western blotting analysis. Briefly, after incubation with test agents in an organ bath, isolated beating atrium was frozen and pulverized to a fine powder at the temperature of liquid nitrogen. Atrium powders were then homogenized in protein extraction reagent (Pierce Biotechnology, Inc., Rockford, Ill.) by sonication. The samples were sonicated 10 sec three times and centrifuged at 13,000 rpm at 4° C. for 30 min. The protein concentrations of supernatants were determined by using bovine serum albumin as the standard. The cell extracts were then boiled in a ratio of 4:1 with sample buffer (Tris 100 mM, pH 6.8; glycerol 20%, Sodium dodecyl sulfate (SDS) 4% and bromophenol blue 0.2%). Electrophoresis was performed using 10% SDS-PAGE and transferred to nitrocellulose membranes (Millipore Corp., Billerica, Mass.). […] The intensity of the bands was measured by densitometry. eNOS or phosphorylated eNOS were extracted from cell culture of neonatal myocytes, PA ring and aortic ring (2-3 mm) of rats and measured by Western blotting analysis.
PK, ROCKII and CIP-17 expression and pretreatment of beating left atrium. To examine whether KMUP-3 or KMUP-3 amine salt affects the protein expression in beating atrium, PKA, ROCKII, PKG and phosphorylated CIP-17 was determined by Western blotting, respectively. […]

eNOS [2] = experiment: eNOS expression in neonatal myocytes, Western blotting; assay type: cell-based, rat; details: neonatal rat cardiomyocytes
Procedure: (§2) eNOS/p-NOS and cAMP/cGMP in neonatal myocytes. To determine the role of the NO/cGMP-pathway in heart, neonatal rat myocyte protein was extracted followed by Western blotting to measure the expression of eNOS, phosphorylated eNOS (p-eNOS), cAMP, and cGMP (FIG. 14 A-14 B and FIG. 15 A-15 B). KMUP-3 increased eNOS and p-eNOS in neonatal rat cardiomyocytes and the effect was reduced by L-NAME (100 μM)-pretreatment (FIG. 14A and FIG. 14B). KMUP-3 increased both cAMP and cGMP.
as §1, with “standard.” for “standard. The cell extracts were then boiled in a ratio of 4:1 with sample buffer (Tris 100 mM, pH 6.8; glycerol 20%, Sodium dodecyl sulfate (SDS) 4% and bromophenol blue 0.2%). Electrophoresis was performed using 10% SDS-PAGE and transferred to nitrocellulose membranes (Millipore Corp., Billerica, Mass.).”

[3] = system: phosphorylated eNOS (p-eNOS); experiment: Phosphorylated eNOS expression in neonatal myocytes, Western blotting; assay type: cell-based, rat; details: neonatal rat cardiomyocytes
Procedure: as §2
as §1, with “standard.” for “standard. The cell extracts were then boiled in a ratio of 4:1 with sample buffer (Tris 100 mM, pH 6.8; glycerol 20%, Sodium dodecyl sulfate (SDS) 4% and bromophenol blue 0.2%). Electrophoresis was performed using 10% SDS-PAGE and transferred to nitrocellulose membranes (Millipore Corp., Billerica, Mass.).”

cGMP = cGMP in neonatal myocytes; assay type: cell-based, rat
Procedure: as §2

ROCKII = ROCKII expression in aorta and pulmonary artery rings, Western blotting; assay type: cell-based, rat; details: aorta and pulmonary artery (PA) ring
Procedure: (§3) ROCKII expression and vascular resistance. To determine whether KMUP-3's ROCKII activity increased vascular resistance, aorta and pulmonary artery (PA) ring protein was extracted followed by Western blotting to measure the expression ROCKII and eNOS.
as §1

eNOS [4] = experiment: eNOS expression in aorta and pulmonary artery rings, Western blotting; assay type: cell-based, rat; details: aorta and pulmonary artery (PA) ring
Procedure: as §3, §1

L-type Ca2+ channels = experiment: Ca2+ entry currents in H9c2 cells, whole cell patch-clamp; assay type: cell-based, rat; details: H9c2 cells, KMUP-3 1-100 μM
Description: To measure the ICa through L-type Ca^2+ channels, whole cell patch-clamp electrophysiology was used in rat heart-derived H9c2 cells as previously described. In brief, H9c2 cells were placed in a recording dish and perfused with a bath solution containing (in mM): 135 tetraethylammonium (TEA)-Cl, 1.8 CaCl2, 2 MgCl2, 10 glucose, and 10 HEPES (pH 7.4, Tris). […] Negative pressure was briefly applied to rupture the membrane and a gigaohm seal was obtained.
H9c2 cells were clamped at −80 mV with step depolarizations (300 ms) from −80 to 0 mV to evoke whole-cell ICa. Voltage clamped cells were equilibrated for 15 min prior to experimentation. Membrane currents were recorded on an Axopatch 700A amplifier (Axon Instruments, Union City, Calif.), filtered at 1 kHz using a low-pass Bessel filter, digitized at 5 kHz and stored on a computer for subsequent analysis with Clampfit 9.0. Following equilibration, ICa was monitored in the presence and absence of KMUP-3 or KMUP-3 amine salt (1, 10, 100 μM). To ascertain whether PKG or ROCK signaling was involved in the KMUP-3-induced decreases in ICa, H9c2 cells were incubated for 15 min with the combination of KMUP-3 or KMUP-3 amine salt (10 μM) and PKG antagonist KT5823 (3 μM) or ROCK inhibitor Y-27632 (50 μM). All electrical recordings were performed at room temperature.

[5] = system: electrically-stimulated left atria; experiment: Electrically-stimulated beating left atrium, organ bath; assay type: cell-based, guinea-pig; details: 0.1~30 μM, electrical stimulation 1 Hz

Cn1c(=O)c2c(ncn2CCN2CCN(c3ccc([N+](=O)[O-])cc3)CC2)n(C)c1=O [KMUP-3, 7-[2-[4-(4-nitrobenzene)piperazinyl]ethyl]-1,3-dimethylxanthine]
Left atria contractility ([1]; KMUP-3 10 μM): increased
Potency for increasing contractility compared with milrinone ([1]; electrical stimulation 1 Hz, P<0.05): more potent than milrinone
Phosphorylation of CPI-17 (CPI-17): concentration-dependently increased
eNOS expression (eNOS [2]): increased
p-eNOS expression [3]: increased
cGMP (cGMP): increased
cGMP increase compared with cAMP increase (cGMP): increased more than the former
Vascular ROCKII expression (ROCKII): did not increase
Vascular eNOS expression (eNOS [4]): did increase
Inward currents (Ca2+ entry) (L-type Ca2+ channels): concentration-dependently reduced
Left atrium contractility [5]: concentration-dependently increased
